Results on 1 molecule are retold here after US20070149481A1, “N,n-bridged, nitrogen-substituted carbacyclic indolocarbazoles as protein kinase inhibitors” (priority 2002, published 2007).

For data set [1], the target named is T1, PKA (catalytic subunit, bovine heart) (Bos taurus, UniProt P00517).
T1 construct: PKA (catalytic subunit, bovine heart, Calbiochem 539486); purchased Calbiochem 539486; host or cells: bovine heart (tissue-derived)
The data set can be described thus: Protein Kinase A inhibition assay (PKA). In kind it is biochemical. The conditions noted are these: 10 μM compound. The procedure: (§1) The ERK2 kinase activity assay utilizes a radioactivity-based format in a 96-well PCR plate with radioactive readout. The ERK2 activity was assayed in a 25 μL assay mixture containing 25 mM HEPES (pH 7.0), 250 μM ATP, 1 mM MgCl2, 1 mM DTT, 2% DMSO, 150 ng/mL Myelin Basic Protein (MBP, Sigma M-1891), and 13.6 ng/mL His tagged ERK2 (specific activity=38.1 nmol/min*mg). Compounds were screened for inhibition of the ERK2 kinase activity at a concentration of 10 μM. The kinase reaction was allowed to proceed at 37° C. for 30 minutes, then reaction was stopped by the addition of 5 μl of 0.5M EDTA (pH 8). 15 μL of each solution were then spotted onto the corresponding square of a filtermat (8×12 glassfibre mat 90×120 mm, PE-Wallac 1450-421). The filtermat was allowed to dry and washed once with 10% TCA, 2% PPA, 500 mM NaCl each for 30 minutes at rt. Two further washings in 10% TCA and 2% PPA for 30 minutes were performed, then a final 30 minute wash in 99% EtOH at rt was done and the filtermat was air dried. The dry filtermat was then placed in a sample bag with a Meltilex sheet (Melt-on scintillator sheets 73×109 mm, PE-Wallac 1450-441 for filtermat A) over the filtermat. The bag was trimmed to fit into the microplate heatsealer (PE-Wallac 1495-021). The heatsealer is used to melt the Meltilex on the filtermat. The bag containing the filtermat and the melted Meltilex was then placed into a filter cassette and counted using the Microbeta Jet Scintillation and Luminescence Counter PE-Wallac 1450.
The PKA kinase activity assay utilizes a radioactivity-based format in a 96-well PCR plate with radioactive readout. The PKA activity was assayed in a 25 μL assay mixture containing 25 mM HEPES (pH 7.0), 250 μM ATP, 10 mM MgCl2, 1 mM DTT, 1 mM EDTA (pH 8). 2% DMSO. 250 ng/mL Histone H2B (Roche 223 514), and 2 ng/mL PKA (catalytic subunit, bovine heart, Calbiochem 539486, specific activity=1170 pmol/min*μg). Compounds were screened for inhibition of the PKA kinase activity at a concentration of 10 μM. The kinase reaction was allowed to proceed at 37° C. for 30 minutes, then the reaction was stopped by addition of 5 μL of 0.5M EDTA (pH 8). The remainder of the protocol is identical to the one reported for ERK2.

For another data set, the target named is T2, GSK3β (Homo sapiens, UniProt P49841).
T2 construct: purchased Upstate Discovery
T2 sequence (P49841 whole entry, species assumed): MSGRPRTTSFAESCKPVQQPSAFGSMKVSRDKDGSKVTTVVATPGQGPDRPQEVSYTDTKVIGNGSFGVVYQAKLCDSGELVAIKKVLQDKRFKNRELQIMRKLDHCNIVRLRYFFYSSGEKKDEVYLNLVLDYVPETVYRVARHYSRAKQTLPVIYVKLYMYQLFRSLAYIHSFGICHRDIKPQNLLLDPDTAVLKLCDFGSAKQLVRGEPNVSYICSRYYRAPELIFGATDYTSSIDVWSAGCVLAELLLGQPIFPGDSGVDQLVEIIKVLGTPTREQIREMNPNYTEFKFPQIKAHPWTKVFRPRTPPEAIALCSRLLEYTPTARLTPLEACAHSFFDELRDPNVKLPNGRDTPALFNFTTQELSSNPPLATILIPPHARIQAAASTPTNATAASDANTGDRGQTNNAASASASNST
As to the kind of experiment: Glycogen Synthase Kinase 3β inhibition assay (GSK3β). As to conditions: 10 μM compound. In kind it is biochemical. The procedure:
The GSK3β kinase activity assay utilizes a radioactivity-based format in a 96-well PCR plate with radioactive readout. The GSK3 β activity was assayed in a 25 μL assay mixture containing 8 mM HEPES (pH 7.0), 250 μM ATP, 0.2 mM EDTA (pH 8), 2% DMSO, 250 ng/mL Myelin Basic Protein (MBP, Sigma M-1891), and 12 ng/mL GSK3β (Upstate Discovery, specific activity=607 nmol/min*GS2 peptide, concentration of 6.05 mg/mL). Compounds were screened for inhibition of the GSK3β kinase activity at a concentration of 10 μM. The kinase reaction was allowed to proceed at 37° C. for 30 minutes, then the reaction was stopped by addition of 5 μL of 0.5M EDTA (pH 8).

For the next data set, the system named is PKC (rat brain). As to the kind of experiment: Protein Kinase C inhibition assay (PKC). The data set is classed as biochemical. The conditions noted are these: 10 μM compound. On the procedure:
as §1
The PKC kinase activity assay utilizes a radioactivity-based format in a 96-well PCR plate with radioactive readout. The PKC activity was assayed in a 25 μL assay mixture containing 25 mM HEPES (pH 7.0), 250 μM ATP, 10 mM MgCl2, 1 mM DTT, 1 mM EDTA (pH 8), 2 mM CaCl2, 2% DMSO, 250 ng/mL Histone H1 (Roche 1 004 875), and 165 ng/mL PKC (rat brain, Calbiochem 539494, specific activity=1600 nmol/min*mg). Compounds were screened for inhibition of the PKC kinase activity at a concentration of 10 μM. The kinase reaction was allowed to proceed at 37° C. for 30 minutes, then the reaction was stopped by addition of 5 μL of 0.5M EDTA (pH 8). The remainder of the protocol is identical to the one reported for ERK2.

A short description of data set [2]: Determination of brain/plasma ratios for K252a and NAD002 for comparison with NAD0241 (Example 56F). The data set is classed as in vivo, Wistar Han Rats. The conditions noted are these: rats, 1 hour post-administration. On the procedure:
Application of Compound: 5 mg/kg of NAD 241 and NAD0180 each in a vehicle of 1.5 mL/kg PEG 400 Macrogol Ph. Eur. were applied i.v. through the femoral vein to two groups (n=3) of Wistar Han Rats weighing between 240-270 g. The application was performed under anaesthesia, initiated with 3.5% Isofluorane/O2, then maintained at 1% during compound application and suture of the vein. 200 μL of local anaesthetic lidocaine were locally administered. 1 hour after application of the compound 200 μl of blood were obtained by tail vein incision. Immediately following the blood sampling rats were terminated by decapitation after brief CO2 anaesthesia Brains were resected and weighed. Plasma was obtained by centrifugation of the tail vein blood at 13000 g for 20 minutes at 4° C. Prior art compounds […] and NAD002 and were assessed using identical conditions of application as used in example 56E to provide a direct comparison with NAD0241 for the ability to penetrate the blood-brain barrier. Volumes of injection for all compounds (including NAD0241) was fixed at 2.3 mL/kg, in average about 500-600 μL per animal. The other parameters were left unchanged. Sampling of body fluids and brain tissue was performed as described in example 56E. Extraction of compounds from brain and plasma was performed as described in example 56E but no concentrated ammonia solution was added prior to extraction of […] and NAD002. HPLC analysis of […] was performed on a 5 μm Merck RP 18 Select B 12.5×4.6 mm column at a flow rate of 0.75 mL/min with isocratic elution by acetonitrile/water 60/40 (v/v). Fluorescent excitation/emission was at 284 nm/476 nm. NAD002 was analyzed on a C 18 shield symmetry 25×4.6 mm (Waters and Owen) at 40° C. using excitation/emission wavelengths of 315/565 nm. Quantitations were performed as under example 56E.

As a reminder, the inhibition is the drop in the measured response relative to a control, in per cent. For `NC(=O)[C@]1(N)CC2CC1n1c3ccccc3c3c4c(c5c6ccccc6n2c5c31)C(=O)NC4=O` (mixture of isomers) [Compound 5], in data set [1], 10 µM produced 96.8% inhibition. At GSK3β, this molecule yielded an inhibition at 10 µM of 100%. Also, in the data set on PKC (rat brain), the “% Inhibition PKC” value is recorded as 91.62%. The Kp at 1 h in data set [2] (Wistar Han, rat, brain and plasma, iv, 5 mg/kg, 5 mg/kg i.v., 2.3 mL/kg PEG 400, read-out: brain/plasma ratio) was about 1. In data set [2], the “brain concentration compared with NAD002” value is given as “Significantly higher”; the “improvement of brain/plasma ratio over K252a” value was “about two-fold”; the “improvement of brain/plasma ratio over NAD002” value is given as “several-fold”; the “plasma levels compared with NAD002 and K252a” value is listed as “Lower”.
